Reference: a melting point compilation (Tetko et al.; mined from patent text by program, amines drawn as free bases though some values may be those of a salt)

| Structure (SMILES) | melting point |
| --- | --- |
| CCC(=O)c1c(O)oc(=O)c(C(=O)CC)c1O | 114 to 115 °C |
| CC(C)(C)OC(=O)COc1ccc(C(=O)O)cc1 | 119 to 121 °C |
| Cc1cc(C)c(/C=C2\C(=O)N(CO)c3ccccc32)[nH]1 | 196 to 200 °C |
| CN1CCN(c2cc(Cl)cc3[nH]c(=O)n(Cc4ccccc4)c(=O)c23)CC1 | 208 to 210 °C |
| CCC1(O)NC(=O)C2(c3ccc(Cl)cc3)CC12 (centres undefined) | 117 to 124 °C |
| NC(=O)c1sc2nccc(N3CCCN(c4cccc([N+](=O)[O-])c4)CC3)c2c1N | 180 to 185 °C |
| CC(C)(C)OC(=O)N1CCc2ccc3ccn(CCO)c3c2CC1 | 226 to 229 °C |
| CC(Cl)C(=O)c1ccc2c(c1)CCC(=O)N2 (centres undefined) | 205 to 206 °C |
| CS(=O)(=O)Cc1c(C(=O)O)ccc2c1OC(F)(F)O2 | 107 to 109 °C |
| CCSC(=N)Nc1ccc2[nH]cc(C3=CCN(C)CC3)c2c1 | 77 to 79 °C |
| Oc1ccc(O)c(O)c1O | 162 to 164 °C |
| CCn1cnc(/C=C/c2cn(-c3ccccc3)nc2OCc2ccc(OCc3nc(-c4ccc(CC(=O)O)cc4)oc3C)c(OC)c2)c1 | 194 to 196 °C |
| CC(=O)c1cc(I)cc(S(N)(=O)=O)c1 | 188 to 189 °C |
| CCOC(=O)c1cc2c(=O)c3cc(C(C)CO)ccc3oc2nc1N (centres undefined) | 255 to 256 °C |
| CC(Oc1ccc2nc(NC(=O)NCCN3CCOCC3)sc2c1)c1c(F)ccc(Cl)c1Cl (centres undefined) | 200 °C |
| N#Cc1ccc(-c2cn(-c3ccc(C#N)cc3)c(SCc3ccccc3)n2)cc1 | 168 to 172 °C |
| CCn1c2ccc3ccccc3c2c2cccc(C)c21 | 79 to 83 °C |
| C#CCOc1cc(-n2nc3n(c2=O)CCCN3)c(F)cc1Cl | 172 to 174 °C |
| COC1=C(OC)C(=O)C2=C(CC(CCCCOc3ccc(CO)cc3)C2)C1=O | 72 to 75 °C |
| CN(C)CCOc1ccccc1CC(=O)N1C[C@@H]2C(=O)CCC(c3ccccc3)(c3ccccc3)[C@@H]2C1 (racemic) | 90 °C |
| COC(=O)C(=CO)N(C)C(=O)C=Cc1ccccc1Cl | 129 to 130 °C |
| CN1CCN(CCCNc2ccccc2N)CC1 | 65 to 67 °C |
| O=C(O)CN(C(=O)CCCOc1ccc2c(c1)CN1CC(=O)NC1=N2)C1CCCCC1 | 194 to 195 °C |
| O=C(c1ccccc1)n1c(=O)c(C(F)(F)F)cn(C2CC(OCc3ccccc3)C(CO)O2)c1=O (centres undefined) | 154 to 155 °C |
| Cc1cccc(C(=O)NC(C)(C(N)=S)C(C)C)c1 (centres undefined) | 108 to 110 °C |

| Structure (SMILES) | melting point |
| --- | --- |
| Oc1ccccc1OCC1CCN(CC(O)COc2cccc3[nH]ccc23)CC1 (centres undefined) | 119 to 121 °C |
| CN(Cc1cccc2c1C(=O)N(C1CCC(=O)NC1=O)C2=O)C(=O)Nc1ccc2ccccc2c1 (centres undefined) | > 260 °C |
| Cc1cc(-n2cnn(Cc3ccccc3)c2=O)sc1C(=O)NCc1cccnc1 | 180 to 181 °C |
| O=C1Cc2ccc(F)cc2Sc2cc(F)c(Cl)cc21 | 131 to 133 °C |
| Nc1ccc(-n2ccc(=O)cc2)cc1N | 257 to 260 °C |
| CP(C)(=O)COC(=O)c1ccccc1Nc1ccnc2c(C(F)(F)F)cccc12 | 176 °C |
| O=C1c2ccccc2-c2ccc(F)cc21 | 113 to 115 °C |
| Cc1ccc(N2CCN(CCCc3[nH]nc4c3CCC4)CC2)cc1 | 101 to 102 °C |
| CC(C)(O)c1cccn2c(-c3ccnc(NC4CCC(C(=O)N5CCC(O)CC5)CC4)n3)cnc12 (centres undefined) | 188 to 190 °C |
| COCCOc1ccc(/C=C/COC(=O)NS(=O)(=O)NCCN2CCCC2)c(Oc2ncc(C(F)(F)F)cc2Cl)c1 | 154 to 156 °C |
| CCC(CC)C(NS(=O)(=O)c1ccc(Cl)s1)C(C)O (centres undefined) | 95 to 98 °C |
| CCOC(=O)c1cccc(NC(=O)NCC(=O)N2[C@@H](c3ccccc3)SC[C@H]2C(=O)OC(C)(C)C)c1 | 85 °C |
| N#Cc1cc(N2CCN(CC[C@H]3CC[C@H](NS(=O)(=O)c4cccnc4)CC3)CC2)cc(C(F)(F)F)c1 | 194 to 195 °C |
| C=CC(=O)NCC(C(=O)c1ccccc1)C(=O)c1ccccc1 | 146 to 148 °C |
| COc1ccc2[nH]cc(C3=C(Cl)C(=O)C=C(Cl)C3=O)c2c1 | 195 to 196 °C |
| c1nc(Nc2ccc3[nH]ccc3c2)c2sc(-c3ccsc3)cc2n1 | 178 to 189 °C |
| O=c1c2c(Cl)cc(Cl)cc2n(Cc2ccccc2)c(=O)n1Cc1ccccc1F | 126 to 130 °C |
| COc1cc(C)cc(NC(=O)c2nnnn2Cc2ccccc2)c1OCc1ccccc1 | 181 to 183 °C |
| COc1ccc2nc3cc(OC)c(=O)c(Br)c-3sc2c1 | 260 to 261 °C |
| CCN1c2ncccc2C(=O)Nc2c(C)cc(N3CCCC(CO)C3)nc21 (centres undefined) | 194 to 197 °C |
| CCC(O)c1ccc(Cl)c2nc3n(c12)CCCN3c1c(Br)cc(OC)cc1Br (centres undefined) | 138 to 140 °C |
| COc1ccc2c(c1)CCC(c1ccc(F)cc1)C2=O (centres undefined) | 124 to 127 °C |
| CC1CC(=O)c2cc(F)ccc2S1(=O)=O (centres undefined) | 113 to 114 °C |
| ONCc1ccc2c(c1)Cc1ccccc1-2 | 150 to 152 °C |
